Test results as given in patent US10449216B2, “Modulating drug effects against metabotropic glutamate receptor with extracellular calcium” (GEORGIA STATE UNIVERSITY RESEARCH FOUNDATION, INC., priority 2013, dated 2019).

Experiments:
WT mGluR1α [1] = biological target: T1, WT mGluR1α (Rattus norvegicus, UniProt P23385); assay: [^3H]-L-Quis binding to membranes of HEK293 cells expressing WT mGluR1α
T1 construct: expressed in transfected cells; host or cells: HEK293

mGluR5 = mGluR5 (Rattus norvegicus, UniProt P31424); assay: Intracellular Ca^2+ response/oscillation in mGluR5 transfected HEK293 cells; assay type: cell-based; design: expressed in transfected cells; host or cells: HEK293; settings: no other agonist
mGluR5, sequence (P31424 21-1203): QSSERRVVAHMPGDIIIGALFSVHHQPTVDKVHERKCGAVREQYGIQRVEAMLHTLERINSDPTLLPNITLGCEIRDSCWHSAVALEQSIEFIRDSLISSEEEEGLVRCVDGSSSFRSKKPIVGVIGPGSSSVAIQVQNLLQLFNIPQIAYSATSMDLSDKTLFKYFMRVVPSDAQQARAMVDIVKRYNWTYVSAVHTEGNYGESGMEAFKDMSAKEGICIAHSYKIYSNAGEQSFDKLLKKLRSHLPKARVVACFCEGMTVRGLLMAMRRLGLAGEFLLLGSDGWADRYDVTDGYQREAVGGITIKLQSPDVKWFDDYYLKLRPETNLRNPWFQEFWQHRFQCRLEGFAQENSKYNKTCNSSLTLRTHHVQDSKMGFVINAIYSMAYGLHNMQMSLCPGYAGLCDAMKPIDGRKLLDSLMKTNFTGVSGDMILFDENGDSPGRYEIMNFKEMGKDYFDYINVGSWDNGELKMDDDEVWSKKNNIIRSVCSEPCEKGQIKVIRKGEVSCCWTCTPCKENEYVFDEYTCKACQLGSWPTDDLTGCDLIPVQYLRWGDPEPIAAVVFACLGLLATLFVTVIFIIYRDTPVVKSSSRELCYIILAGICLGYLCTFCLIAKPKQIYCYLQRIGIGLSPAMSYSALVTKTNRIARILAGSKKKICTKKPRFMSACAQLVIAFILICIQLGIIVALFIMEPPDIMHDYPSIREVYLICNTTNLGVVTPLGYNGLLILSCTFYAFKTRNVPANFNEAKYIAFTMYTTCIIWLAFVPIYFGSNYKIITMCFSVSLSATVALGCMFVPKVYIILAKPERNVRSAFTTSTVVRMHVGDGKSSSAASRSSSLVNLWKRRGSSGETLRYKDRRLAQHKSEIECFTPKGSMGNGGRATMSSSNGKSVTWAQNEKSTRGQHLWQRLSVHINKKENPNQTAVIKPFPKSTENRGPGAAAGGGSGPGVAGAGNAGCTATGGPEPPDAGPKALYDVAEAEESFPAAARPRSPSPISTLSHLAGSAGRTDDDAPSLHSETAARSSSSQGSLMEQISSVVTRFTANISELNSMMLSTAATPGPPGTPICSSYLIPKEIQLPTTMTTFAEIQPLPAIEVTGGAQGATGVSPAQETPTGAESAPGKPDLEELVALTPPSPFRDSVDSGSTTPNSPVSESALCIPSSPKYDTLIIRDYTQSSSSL
Method: HEK293 cells were fed on a Dulbecco's Modified Eagle Medium (DMEM) and 10% fetal bovine serum (Invitrogen) and cultured at 37° C. in a humidified incubator with 5% CO2. One day before transfection, HEK293 cells were grown on 22×44 mm coverslips and then were transfected with mGluR5 plasmid (received as a gift from Dr. Randy Hall, Emory University, Atlanta, Ga.) with the aid of lipofectamine 2000 (Invitrogen). mGluR5 transfected HEK293 cells were grown for 48 hours and then loaded with 4 µM Fura-2 AM in loading buffer containing 10 mM HEPES (pH 7.4), 140 mM NaCl, 5 mM KCl, 0.55 mM MgCl2 for 30 minutes at 37° C. The coverslips were then mounted in a bathing chamber on the stage of a fluorescence microscope. […] The ratio of fluorescence emitted at 510 nm resulting from excitation at 340 or 380 nm was analyzed to obtain the [Ca^2+]i response as a function of changes in [Ca^2+]o.
HEK293 cells were cultured and transfected as described above. Intracellular Ca^2+ concentration was recorded using the method as described previously. […]

WT mGluR1α [2] = biological target: T1, WT mGluR1α; assay: Single cell Fura-2 [Ca^2+]i response in HEK293 cells transiently transfected with WT mGluR1α; assay type: cell-based; settings: for Response to [Ca^2+]o: Maximal Response / Max. Res. to Ca^2+: normalized to maximal response of WT mGluR1α to L-Glu
mGluR1 = mGluR1 (Rattus norvegicus, UniProt P23385); assay: Fura-2 intracellular calcium release in mGluR1-transfected HEK293 cells (Example 4); assay type: cell-based; design: expressed in transfected cells; host or cells: HEK293; settings: 3 mM/6 mM calcium, after wash with 0 mM calcium
mGluR1, sequence (P23385 19-1199): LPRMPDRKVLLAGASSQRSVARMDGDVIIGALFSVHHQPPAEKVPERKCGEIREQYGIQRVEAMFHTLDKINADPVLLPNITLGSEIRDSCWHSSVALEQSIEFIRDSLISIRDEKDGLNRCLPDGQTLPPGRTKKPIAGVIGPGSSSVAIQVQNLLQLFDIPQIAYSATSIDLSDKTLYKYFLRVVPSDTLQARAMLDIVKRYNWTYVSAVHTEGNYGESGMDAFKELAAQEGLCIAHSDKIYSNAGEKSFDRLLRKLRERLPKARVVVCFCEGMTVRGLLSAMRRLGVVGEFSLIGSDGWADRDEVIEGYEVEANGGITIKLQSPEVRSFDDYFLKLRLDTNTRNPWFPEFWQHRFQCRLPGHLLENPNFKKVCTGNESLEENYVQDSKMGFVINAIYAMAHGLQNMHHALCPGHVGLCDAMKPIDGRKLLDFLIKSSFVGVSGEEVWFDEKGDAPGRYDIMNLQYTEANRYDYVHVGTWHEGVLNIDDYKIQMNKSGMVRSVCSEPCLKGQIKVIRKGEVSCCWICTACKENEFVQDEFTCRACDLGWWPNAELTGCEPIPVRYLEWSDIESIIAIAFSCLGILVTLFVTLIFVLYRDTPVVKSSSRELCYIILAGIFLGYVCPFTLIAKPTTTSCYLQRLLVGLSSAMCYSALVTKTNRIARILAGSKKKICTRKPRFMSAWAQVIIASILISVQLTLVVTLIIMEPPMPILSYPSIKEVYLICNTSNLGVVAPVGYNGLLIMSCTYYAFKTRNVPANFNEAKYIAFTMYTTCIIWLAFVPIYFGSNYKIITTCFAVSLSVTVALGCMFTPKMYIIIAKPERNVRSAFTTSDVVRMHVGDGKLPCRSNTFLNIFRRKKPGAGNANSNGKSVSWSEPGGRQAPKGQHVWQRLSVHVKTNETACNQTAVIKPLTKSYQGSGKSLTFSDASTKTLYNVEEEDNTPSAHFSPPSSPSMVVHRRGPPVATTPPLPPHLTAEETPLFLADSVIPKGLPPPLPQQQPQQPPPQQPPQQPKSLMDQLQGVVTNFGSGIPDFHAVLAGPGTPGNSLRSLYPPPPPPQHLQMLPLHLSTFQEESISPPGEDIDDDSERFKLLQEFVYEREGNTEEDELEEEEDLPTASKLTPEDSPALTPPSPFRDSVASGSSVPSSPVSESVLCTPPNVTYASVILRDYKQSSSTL

mGluR1α D322I = biological target: T2, mGluR1α D322I (Rattus norvegicus, UniProt P23385, D322I); assay: [^3H]-L-Quis binding to membranes of HEK293 cells expressing D322I; settings: in the presence of 30 nM [^3H]-L-Quis, read-out: KD, [Ca^2+]o-binding affinity of mGluR1α
T2 construct: expressed in transfected cells; host or cells: HEK293
T2 sequence (P23385 19-1199 D322I): as the sequence (P23385 19-1199) above, with D304I counted along it

mGluR1α E325I = biological target: T3, mGluR1α E325I (Rattus norvegicus, UniProt P23385, E325I); assay: [^3H]-L-Quis binding to membranes of HEK293 cells expressing E325I; settings: with 300 nM [^3H]-L-Quis, read-out: KD, [Ca^2+]o-binding affinity of mGluR1α
T3 construct: expressed in transfected cells; host or cells: HEK293
T3 sequence (P23385 19-1199 E325I): as the sequence (P23385 19-1199) above, with E307I counted along it

T1 sequence (P23385 19-1199): as the sequence (P23385 19-1199) above

Kd (WT mGluR1α [1]; WT, in the presence of 30 nM [^3H]-L-Quis, read-out: KD, [Ca^2+]o-binding affinity of mGluR1α): 0.3 mM | EC50 (WT mGluR1α [1]; wild type receptor, read-out: EC50 of [Ca^2+]o for enhancing L-Quis-binding): ~0.3 mM | Extracellular Ca^2+ concentration change that started to induce intracellular oscillation (mGluR5): 0.05 mM | Fold increase of the EC50 for [Ca^2+]o (WT mGluR1α [2]; 0 versus 0.5 mM MCPG): ~1.7 fold | EC50 (WT mGluR1α [2]; 40 μM CPCCOEt, read-out: EC50 of mGluR1α for [Ca^2+]o): 28700 µM | Response to [Ca^2+]o: nHill (WT mGluR1α [2]; 0.5 mM (s)-MCPG): 2.6 | Response to [Ca^2+]o: Maximal Response (WT mGluR1α [2]; 0.5 mM (s)-MCPG): 67 ± 2 | EC50 (WT mGluR1α [2]; 0.5 mM (s)-MCPG, read-out: Response to [Ca^2+]o: EC50): 6000 µM | Response to [Ca^2+]o: nHill (WT mGluR1α [2]; (s)-MCPG 0): 6.4 | Response to [Ca^2+]o: Maximal Response (WT mGluR1α [2]; (s)-MCPG 0): 85 ± 2 | EC50 (WT mGluR1α [2]; (s)-MCPG 0, read-out: Response to [Ca^2+]o: EC50): 3500 µM | Response to [Ca^2+]o: nHill (WT mGluR1α [2]; CPCCOEt 0): 6.4 | Response to [Ca^2+]o: Maximal Response (WT mGluR1α [2]; CPCCOEt 0): 85 ± 2% | EC50 (WT mGluR1α [2]; CPCCOEt 0, read-out: Response to [Ca^2+]o: EC50): 3500 µM | Response to [Ca^2+]o: nHill (WT mGluR1α [2]; CPCCOEt Conc. 5 (μM)): 1.3 | Response to [Ca^2+]o: Maximal Response (WT mGluR1α [2]; CPCCOEt Conc. 5 (μM)): 75 ± 3% | EC50 (WT mGluR1α [2]; CPCCOEt Conc. 5 (μM), read-out: Response to [Ca^2+]o: EC50): 7600 µM | Response to [Ca^2+]o: nHill (WT mGluR1α [2]; CPCCOEt Conc. 40 (nM)): 1.1 | Response to [Ca^2+]o: Maximal Response (WT mGluR1α [2]; CPCCOEt Conc. 40 (nM)): 60 ± 3% | Max. Res. to Ca^2+ (WT mGluR1α [2]; Ro 67-4853 0 nM): 85 ± 2 | EC50 (WT mGluR1α [2]; Ro 67-4853 0 nM, read-out: EC50 of Ca^2+): 3500 µM | Max. Res. to Ca^2+ (WT mGluR1α [2]; Ro 67-4853 30 nM): 83 ± 6 | EC50 (WT mGluR1α [2]; Ro 67-4853 30 nM, read-out: EC50 of Ca^2+): 2100 µM | Max. Res. to Ca^2+ (WT mGluR1α [2]; Ro 67-4853 300 nM): 83 ± 2 | EC50 (WT mGluR1α [2]; Ro 67-4853 300 nM, read-out: EC50 of Ca^2+): 700 µM | EC50 (WT mGluR1α [2]; in the presence of 5 μM CPCCOEt, read-out: EC50 of mGluR1α for [Ca^2+]o): 14700 µM | Activation of mGluR1 by calcium alone (mGluR1): no response was observed | Kd (mGluR1α D322I): 0.6 mM | Kd (mGluR1α E325I): > 20 mM
SMILES: [Ca+2] [[Ca^2+]o]
